US11186618B2, “Dendritic-cell-targeted peptide, fusion peptide utilizing said peptide, and vaccine utilizing said fusion peptide” (The Research Foundation for Microbial Diseases of Osaka …, priority 2016, dated 2021)

Columns and labels:
[1] = system: antigen-specific CD8^+ CTLs; experiment: IFN-γ production by immune cells of regional lymph nodes, Kras G12D peptide (Test Example 10); format: in vivo, mouse; conditions: 50 μg as G12D-derived peptide with 10 μg CpG oligodeoxynucleotide, subcutaneously into the ears Day 0, lymph node cells Day 7, cultured 24 hours
Protocol: A fusion peptide (G12D-FL4) was prepared by linking the N-terminus of the peptide consisting of the amino acid sequence of FL4 to the C-terminus of a partial peptide of Kras containing G12D mutation (G12D-derived peptide; LVVVGADGV (SEQ ID NO: 42); the 6th to 14th amino acid sequence from the N-terminal side of Kras containing G12D mutation). Specifically, the amino acid sequence of the fusion peptide is [Partial sequence of Kras containing G12D mutation (LVVVGADGV; SEQ ID NO: 42)]-[VSYKAIR; SEQ ID NO: 1]. The production method of the fusion peptide was the same as that of PspA-FL4 except that a DNA molecule encoding the G12D-derived peptide was used.
50 μL of physiological saline containing 50 μg of G12D-FL4 in terms of the G12D-derived peptide amount and 10 μg of CpG oligodeoxynucleotide (K3 type, product name “K3 Et-Free”, product number “CN-65003” manufactured by GeneDesign Inc.) was administered subcutaneously into the ears of 7-week old C57BL/6 mice on Day 0, regional lymph nodes were collected on Day 7 and immune cells were recovered. […]

[2] = target: Neuropilin-1 (Homo sapiens, UniProt O14786); conditions: reported so far; cited from earlier work
Chain of Neuropilin-1 (O14786 22-923, species assumed): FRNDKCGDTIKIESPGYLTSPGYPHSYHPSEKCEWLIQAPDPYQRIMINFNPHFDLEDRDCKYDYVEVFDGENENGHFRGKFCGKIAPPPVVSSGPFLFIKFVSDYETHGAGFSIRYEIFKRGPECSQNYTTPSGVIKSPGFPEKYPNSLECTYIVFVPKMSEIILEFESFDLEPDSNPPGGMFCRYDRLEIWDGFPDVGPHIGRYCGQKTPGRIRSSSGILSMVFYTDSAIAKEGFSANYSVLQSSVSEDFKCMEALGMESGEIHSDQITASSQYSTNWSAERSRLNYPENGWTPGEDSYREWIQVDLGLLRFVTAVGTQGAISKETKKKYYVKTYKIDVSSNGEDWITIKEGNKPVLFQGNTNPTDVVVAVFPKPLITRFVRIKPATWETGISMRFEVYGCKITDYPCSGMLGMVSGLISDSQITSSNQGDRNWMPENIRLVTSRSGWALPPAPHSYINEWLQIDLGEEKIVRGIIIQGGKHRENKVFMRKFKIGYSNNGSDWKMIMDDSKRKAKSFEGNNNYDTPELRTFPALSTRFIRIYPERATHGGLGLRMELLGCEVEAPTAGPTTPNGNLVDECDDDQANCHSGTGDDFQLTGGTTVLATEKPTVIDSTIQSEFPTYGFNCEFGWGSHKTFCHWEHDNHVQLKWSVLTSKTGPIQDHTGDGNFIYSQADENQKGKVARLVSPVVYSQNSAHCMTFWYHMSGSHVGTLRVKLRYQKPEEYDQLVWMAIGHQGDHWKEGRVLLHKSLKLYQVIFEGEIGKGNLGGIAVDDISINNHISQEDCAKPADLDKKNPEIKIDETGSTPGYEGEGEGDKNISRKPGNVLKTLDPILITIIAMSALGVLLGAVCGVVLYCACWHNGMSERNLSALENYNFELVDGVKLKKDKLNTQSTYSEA

[3] = system: antigen-specific CD8^+ CTLs; experiment: Tetramer assay on regional lymph nodes, CD8+ CTL inducibility (Test Example 8); format: in vivo, mouse; conditions: co-administered with CpG oligodeoxynucleotide, 50 μg in terms of SL8 subcutaneously into the ears Day 0, lymph nodes Day 7
Protocol: A fusion peptide (SL8-FL4) was prepared by linking the N-terminus of the peptide consisting of the amino acid sequence of FL4 to the C-terminus of SL8 (SIINFEKL; SEQ ID NO: 40) which is an MHC class I epitope peptide in chicken ovalbumin (OVA). Specifically, the amino acid sequence of the fusion peptide is [Amino acid sequence of SL8 (SIINFEKL; SEQ ID NO: 40)]-[VSYKAIR; SEQ ID NO: 1]. The production method of the fusion peptide was the same as that of PspA-FL4 except that a DNA molecule encoding SL8 was used. In addition, each of peptide-fusion bodies (SL8-F8 and SL8-FL4Scr) in which the peptide was fused with SL8 was prepared using each of FL8 and the scramble peptide of FL4 (FL4Scr, amino acid sequence: YRSIVKA, SEQ ID NO: 41) in the same manner. […]
(§1) The tetramer assay was carried out as follows. Lymphocytes were recovered from the regional lymph nodes, were stained with fluorescently labeled antibodies against CD44 and CD8 and a fluorescently labeled tetramer recognizing the SL8 peptide presented on H-2K^b, then were analyzed using a flow cytometer.

[4] = system: antigen-specific CD8^+ CTLs; experiment: Tetramer assay, pulmonary versus subcutaneous administration (Test Example 14); format: in vivo, mouse; conditions: Day 14
Protocol: as §1
In this study, CD8^+ cytotoxic T cells inducibility by pulmonary administration and that by subcutaneous administration were compared by using SL8-FL4. 40 μL of physiological saline containing 50 μg of SL8-FL4 in terms of SL8 amount and 10 μg of CpG oligodeoxynucleotide (K3 type, product name “K3 Et-Free”, product number “CN-65003” manufactured by GeneDesign Inc.) was pulmonarily or subcutaneously administered to 7-week old C57BL/6 mice on Day 0 and Day 7, regional lymph nodes and the spleen were collected on Day 14 and a tetramer assay was performed in the same manner as Test Example 8. In addition, a test was also carried out in the case where only physiological saline was subcutaneously administered in the same manner (control). Meanwhile, in these tests, five mice in each group were used.

[5] = system: antigen-specific CD8^+ CTLs; experiment: Tetramer assay after pulmonary administration (Test Example 13); format: in vivo, mouse; conditions: pulmonary administration Day 0 and Day 7 with 10 μg CpG oligodeoxynucleotide, Day 14
Protocol: as §1
40 μL of physiological saline containing 50 μg of SL8-FL4 in terms of SL8 amount and 10 μg of CpG oligodeoxynucleotide (K3 type, product name “K3 Et-Free”, product number “CN-65003” manufactured by GeneDesign Inc.) was pulmonarily administrated to 7-week old C57BL/6 mice on Day 0 and Day 7, regional lymph nodes, lung tissues and the spleen were collected on Day 14 and a tetramer assay was performed in the same manner as Test Example 8. In addition, similar tests were conducted with regard to the case where 40 μL of physiological saline containing 50 μg SL8 alone was pulmonarily administered, the case where 50 μL of physiological saline containing 50 μg SL8 and 10 μg of CpG oligodeoxynucleotide was pulmonarily administered, and the case where only physiological saline was pulmonarily administered (control). Meanwhile, in these tests, five mice in each group were used.

[6] = system: EG7 cells; experiment: Tumor size in mice transplanted with EG7 cells (Test Example 9); format: in vivo, mouse; conditions: EG7 tumor bearing C57BL/6 mice
Protocol: In this test, whether the regression effect of cancer was observed by SL8-specific CD8^+ CTLs induced by SL8-FL4 was evaluated. In this test, EG7 cells (cancer cells expressing OVA protein in EL4 cells derived from thymoma of C57BL/6 mouse) were used as cancer cells. Specific test methods are as follows.
1 (10^6 EG7 cells were transplanted into the abdomen of 7-week old C57BL/6 mice to prepare tumor bearing mice. 50 μL of physiological saline containing 50 μg of SL8-FL4 in terms of SL8 amount and 50 μg of CpG oligodeoxynucleotide (K3 type, product name “K3 Et-Free”, product number “CN-65003” manufactured by GeneDesign Inc.) was administered subcutaneously into the ears of mice after EG7 cells were transplanted and the tumor diameter reached about 5 mm (about 5 days after transplantation). Thereafter, tumor size was measured over time while breeding the mice. In addition, similar tests were carried out with regard to the case where 50 μL of physiological saline containing 50 μg SL8 and 50 μg of CpG oligodeoxynucleotide was administered, and the case where only physiological saline was administered (control). Meanwhile, in these tests, five mice in each group were used.

Substance: LVVVGADGV [G12D-derived peptide, partial peptide of Kras containing G12D mutation, reference compound]
- induction of antigen-specific CD8+ CTLs (IFN-γ production ability) [1]: no induction

Substance: RPARPAR (positive control peptide)
- binding to Neuropilin-1 [2]: bind to Neuropilin-1

Substance: [Amino acid sequence of SL8 (SIINFEKL; SEQ ID NO: 40)]-[VSYKAIR; SEQ ID NO: 1] (SIINFEKLVSYKAIR; SL8 C-terminus; Amino acid sequence of motif sequence) [SL8-FL4, fusion peptide of SL8 and FL4]
- induction of antigen-specific CD8+ CTLs (tetramer assay, regional lymph nodes) [3]: strong induction
- induction of antigen-specific CD8+ CTLs in regional lymph nodes in the lungs ([4]; pulmonary administration Day 0 and Day 7 with 10 μg CpG oligodeoxynucleotide): strong induction
- induction of antigen-specific CD8+ CTLs in the spleen ([4]; subcutaneous administration Day 0 and Day 7 with 10 μg CpG oligodeoxynucleotide): Strong induction
- induction of antigen-specific CD8+ CTLs in lung tissues [5]: strongly induced
- induction of antigen-specific CD8+ CTLs in regional lymph nodes in the lungs [5]: strongly induced
- induction of antigen-specific CD8+ CTLs in the spleen [5]: strongly induced
- tumor regression effects ([6]; 50 μg as SL8 with 50 μg CpG oligodeoxynucleotide subcutaneously into the ears, compared with physiological saline): very strong tumor regression effects
- cure of tumor bearing mice ([6]; co-administered with CpG oligodeoxynucleotide): completely cured mice were observed

Substance: [Partial sequence of Kras containing G12D mutation (LVVVGADGV; SEQ ID NO: 42)]-[VSYKAIR; SEQ ID NO: 1] (LVVVGADGVVSYKAIR; G12D-derived peptide; Amino acid sequence of motif sequence) [G12D-FL4, fusion peptide of G12D-derived peptide and FL4]
- induction of antigen-specific CD8+ CTLs (IFN-γ production ability) [1]: very strong induction
